Test results as given in PMC9853328, “Potent Platinum(IV) Prodrugs That Incorporate a Biotin Moiety to Selectively Target Cancer Cells” (Pharmaceutics, 2022).
Read-outs that look alike come from different tables or passages of the source.

Legend:
HT29 colon cancer cells [1] = test: MTT in vitro cytotoxicity assay, HT29; type: cell-based; conditions: MTT, 72 h drug exposure, n = 3, read-out: GI50 ± SEM, HT29
Description: (§1) The in vitro cytotoxicity assays were undertaken at Calvary Mater Hospital, Waratah, NSW, Australia, following a method previously published in the literature. A stock solution for each compound was prepared in DMSO (30 mM) and stored at −20 °C. The cell lines used in the study include HT29 colon, U87 glioblastoma, MCF-7 breast, A2780 ovarian, H460 lung, A431 skin, Du145 prostate, BE2-C neuroblastoma, SJ-G2 glioblastoma, MIA pancreas, and cisplatin-resistant ADDP ovarian (subclone of A2780) cancer cells, as well as the non-cancerous-derived MCF10A breast cell line. The cancer cell lines were cultured in a humidified atmosphere 5% CO2 at 37 °C and maintained in Dulbecco’s modified Eagle’s medium (Trace Biosciences, Sydney, Australia), supplemented with 10% foetal bovine serum, sodium bicarbonate (10 mM), penicillin (100 IU/mL), streptomycin (100 µg/mL), and glutamine (4 mM). The non-cancerous MCF10A cell line was maintained in DMEM:F12 (1:1) cell culture media, with 5% heat inactivated horse serum, supplemented with penicillin (50 IU/mL), streptomycin (50 µg/mL), glutamine (2 mM), HEPES (20 mM), epidermal growth factor (20 ng/mL), hydrocortisone (500 ng/mL), cholera toxin (100 ng/mL), and insulin (10 µg/mL). Cells were plated in duplicate in medium (100 µL) at a density of 2500–4000 cells per well in 96-well plates. On day 0, (24 h after plating) when the cells were in logarithmic growth, medium (100 μL) with or without the test agent was added to each well. The growth inhibitory effects were evaluated after 72 h drug exposure, using the MTT (3-(4,5-dimethylthiazol-2-yl)-2,5-diphenyltetrazolium bromide) assay, with the absorbance read at 540 nm. An eight-point dose–response curve was produced, which was used to determine the concentration at which growth was inhibited by 50% (GI50). This calculation was based on the difference between the optical density values on day 0 and those at the end of drug exposure. […] Experiments were conducted on three separate occasions and GI50 values were reported as the mean and standard error of the mean.

U87 glioblastoma cells [2] = test: MTT in vitro cytotoxicity assay, U87; type: cell-based; conditions: 72 h drug exposure, n = 3, read-out: GI50 ± SEM, U87
Description: as §1

[3] = test system: MCF-7 breast cancer cells; test: MTT in vitro cytotoxicity assay, MCF-7; type: cell-based; conditions: for GI50: MTT, 72 h drug exposure, n = 3, read-out: GI50 ± SEM, MCF-7; for selectivity towards MCF-7 compared to MCF10A (cytotoxicity): GI50 MCF10A versus GI50 MCF-7
[4] = test system: A2780 ovarian cancer cells; test: MTT in vitro cytotoxicity assay, A2780; type: cell-based; conditions: n = 3, read-out: GI50 ± SEM, A2780
Description: as §1

H460 lung cancer cells [5] = test: MTT in vitro cytotoxicity assay, H460; type: cell-based; conditions: n = 3, read-out: GI50 ± SEM, H460
Description: as §1

A431 skin cancer cells [6] = test: MTT in vitro cytotoxicity assay, A431; type: cell-based; conditions: n = 3, read-out: GI50 ± SEM, A431
Description: as §1

[7] = test system: Du145 prostate cancer cells; test: MTT in vitro cytotoxicity assay, Du145; type: cell-based; conditions: MTT, 72 h drug exposure, n = 3, read-out: GI50 ± SEM, Du145
Description: as §1

[8] = test system: BE2-C neuroblastoma cells; test: MTT in vitro cytotoxicity assay, BE2-C; type: cell-based; conditions: 72 h drug exposure, n = 3, read-out: GI50 ± SEM, BE2-C
Description: as §1

SJ-G2 glioblastoma cells [9] = test: MTT in vitro cytotoxicity assay, SJ-G2; type: cell-based; conditions: n = 3, read-out: GI50 ± SEM, SJ-G2
Description: as §1

[10] = test system: MIA pancreas cancer cells; test: MTT in vitro cytotoxicity assay, MIA; type: cell-based; conditions: 72 h drug exposure, n = 3, read-out: GI50 ± SEM, MIA
Description: as §1

[11] = test system: non-cancerous MCF10A breast cell line; test: MTT in vitro cytotoxicity assay, MCF10A; type: cell-based; conditions: 72 h drug exposure, n = 3, read-out: GI50 ± SEM, MCF10A
Description: as §1

[12] = test system: cisplatin-resistant ADDP ovarian (subclone of A2780) cancer cells; test: MTT in vitro cytotoxicity assay, ADDP; type: cell-based; conditions: n = 3, read-out: GI50 ± SEM, ADDP
Description: as §1

[13] = test system: ADDP (subclone of A2780) versus A2780 ovarian cancer cell lines; test: Resistance factor, GI50 in ADDP/GI50 in A2780; type: cell-based
HT29 colon cancer cells [14] = test system: HT29 colon cancer cells; set-up: method as in earlier work; conditions: MTT, same method, taken from the literature; ref [18],[46],[47]; read-out: GI50 ± SEM, HT29; cited from earlier work
U87 glioblastoma cells [15] = test system: U87 glioblastoma cells; set-up: method as in earlier work; conditions: MTT, same method, taken from the literature; ref [18],[46],[47]; read-out: GI50 ± SEM, U87; cited from earlier work
[16] = test system: MCF-7 breast cancer cells; set-up: method as in earlier work; conditions: MTT, same method, taken from the literature; ref [18],[46],[47]; read-out: GI50 ± SEM, MCF-7; cited from earlier work
[17] = test system: A2780 ovarian cancer cells; set-up: method as in earlier work; conditions: MTT, same method, taken from the literature; ref [18],[46],[47]; read-out: GI50 ± SEM, A2780; cited from earlier work
H460 lung cancer cells [18] = test system: H460 lung cancer cells; set-up: method as in earlier work; conditions: MTT, same method, taken from the literature; ref [18],[46],[47]; read-out: GI50 ± SEM, H460; cited from earlier work
A431 skin cancer cells [19] = test system: A431 skin cancer cells; set-up: method as in earlier work; conditions: MTT, same method, taken from the literature; ref [18],[46],[47]; read-out: GI50 ± SEM, A431; cited from earlier work
[20] = test system: Du145 prostate cancer cells; set-up: method as in earlier work; conditions: MTT, same method, taken from the literature; ref [18],[46],[47]; read-out: GI50 ± SEM, Du145; cited from earlier work
[21] = test system: BE2-C neuroblastoma cells; set-up: method as in earlier work; conditions: MTT, same method, taken from the literature; ref [18],[46],[47]; read-out: GI50 ± SEM, BE2-C; cited from earlier work
SJ-G2 glioblastoma cells [22] = test system: SJ-G2 glioblastoma cells; set-up: method as in earlier work; conditions: MTT, same method, taken from the literature; ref [18],[46],[47]; read-out: GI50 ± SEM, SJ-G2; cited from earlier work
[23] = test system: MIA pancreas cancer cells; set-up: method as in earlier work; conditions: MTT, same method, taken from the literature; ref [18],[46],[47]; read-out: GI50 ± SEM, MIA; cited from earlier work
[24] = test system: cisplatin-resistant ADDP ovarian (subclone of A2780) cancer cells; set-up: method as in earlier work; conditions: MTT, same method, taken from the literature; ref [18],[46],[47]; read-out: GI50 ± SEM, ADDP; cited from earlier work
[25] = Homo sapiens, A2780, 72 h drug exposure

Compound: Cc1cc2ccc[n+]3c2c2c1ccc[n+]2[Pt-2]31[NH2+][C@H]2CCCC[C@@H]2[NH2+]1.[Cl-].[Cl-] [5MESS(II)]
- GI50 (HT29 colon cancer cells [1]): 33 ± 3.8 nM
- GI50 (U87 glioblastoma cells [2]): 320 ± 26 nM
- GI50 [3]: 200 ± 12 nM
- GI50 ([4]; 72 h drug exposure): 61 ± 10 nM
- GI50 (H460 lung cancer cells [5]; 72 h drug exposure): 41 ± 5 nM
- GI50 (A431 skin cancer cells [6]; 72 h drug exposure): 120 ± 25 nM
- GI50 [7]: 22 ± 2.7 nM
- GI50 [8]: 270 ± 38 nM
- GI50 (SJ-G2 glioblastoma cells [9]; 72 h drug exposure): 220 ± 10 nM
- GI50 [10]: 48 ± 2 nM
- GI50 [11]: 30 ± 1.8 nM
- GI50 ([12]; 72 h drug exposure): 34 ± 2.3 nM
- Resistance factor (RF) [13]: 0.557

Compound: Cc1cc2ccc[n+]3c2c2c1ccc[n+]2[Pt-2]31([OH])([OH])[NH2+][C@H]2CCCC[C@@H]2[NH2+]1.O=[N+]([O-])[O-].O=[N+]([O-])[O-] [5MESS(IV)]
- GI50 (HT29 colon cancer cells [1]): 150 ± 9 nM
- GI50 (U87 glioblastoma cells [2]): 830 ± 170 nM
- GI50 [3]: 560 ± 200 nM
- GI50 ([4]; 72 h drug exposure): 110 ± 26 nM
- GI50 (H460 lung cancer cells [5]; 72 h drug exposure): 180 ± 32 nM
- GI50 (A431 skin cancer cells [6]; 72 h drug exposure): 240 ± 7 nM
- GI50 [7]: 36 ± 3.2 nM
- GI50 [8]: 1100 ± 180 nM
- GI50 (SJ-G2 glioblastoma cells [9]; 72 h drug exposure): 600 ± 74 nM
- GI50 [10]: 290 ± 34 nM
- GI50 [11]: 220 ± 26 nM
- GI50 ([12]; 72 h drug exposure): 180 ± 24 nM
- Resistance factor (RF) [13]: 1.636

Compound: COc1cc[n+]2c3c1ccc1c(OC)cc[n+](c13)[Pt-2]21[NH2+][C@H]2CCCC[C@@H]2[NH2+]1.[Cl-].[Cl-] [47OMESS(II)]
- GI50 (HT29 colon cancer cells [1]): 120 ± 16 nM
- GI50 (U87 glioblastoma cells [2]): 390 ± 60 nM
- selectivity towards MCF-7 compared to MCF10A (cytotoxicity) [3]: 3 fold
- GI50 [3]: 150 ± 45 nM
- GI50 ([4]; 72 h drug exposure): 230 ± 7 nM
- GI50 (H460 lung cancer cells [5]; 72 h drug exposure): 500 ± 58 nM
- GI50 (A431 skin cancer cells [6]; 72 h drug exposure): 350 ± 26 nM
- GI50 [7]: 85 ± 4.8 nM
- GI50 [8]: 2600 ± 260 nM
- GI50 (SJ-G2 glioblastoma cells [9]; 72 h drug exposure): 1300 ± 67 nM
- GI50 [10]: 240 ± 42 nM
- GI50 [11]: 430 ± 37 nM
- GI50 ([12]; 72 h drug exposure): 170 ± 10 nM
- Resistance factor (RF) [13]: 0.739

Compound: COc1cc[n+]2c3c1ccc1c(OC)cc[n+](c13)[Pt-2]21([OH])([OH])[NH2+][C@H]2CCCC[C@@H]2[NH2+]1.O=[N+]([O-])[O-].O=[N+]([O-])[O-] [47OMESS(IV)]
- GI50 (HT29 colon cancer cells [1]): 520 ± 85 nM
- GI50 (U87 glioblastoma cells [2]): 2600 ± 390 nM
- selectivity towards MCF-7 compared to MCF10A (cytotoxicity) [3]: 7 fold
- GI50 [3]: 510 ± 168 nM
- GI50 ([4]; 72 h drug exposure): 1700 ± 230 nM
- GI50 (H460 lung cancer cells [5]; 72 h drug exposure): 3100 ± 210 nM
- GI50 (A431 skin cancer cells [6]; 72 h drug exposure): 3300 ± 590 nM
- GI50 [7]: 270 ± 38 nM
- GI50 [8]: 33000 ± 3200 nM
- GI50 (SJ-G2 glioblastoma cells [9]; 72 h drug exposure): 7600 ± 1800 nM
- GI50 [10]: 1900 ± 460 nM
- GI50 [11]: 3700 ± 380 nM
- GI50 ([12]; 72 h drug exposure): 1300 ± 58 nM
- Resistance factor (RF) [13]: 0.765

Compound: O=C(O)CCCC[C@@H]1SC[C@@H]2NC(=O)N[C@@H]21 [Biotin, biotin]
- GI50 (HT29 colon cancer cells [1]; Homo sapiens, HT-29): > 50000 nM
- GI50 (U87 glioblastoma cells [2]): > 50000 nM
- GI50 ([3]; Homo sapiens, MCF7): > 50000 nM
- GI50 [4, 25]: > 50000 nM
- GI50 (H460 lung cancer cells [5]; Homo sapiens, NCI-H460, 72 h drug exposure): > 50000 nM
- GI50 (A431 skin cancer cells [6]; Homo sapiens, A-431, 72 h drug exposure): > 50000 nM
- GI50 ([7]; Homo sapiens, DU-145): > 50000 nM
- GI50 ([8]; Homo sapiens, BE(2)-C): > 50000 nM
- GI50 (SJ-G2 glioblastoma cells [9]; SJ-G2, 72 h drug exposure): > 50000 nM
- GI50 [10]: > 50000 nM
- GI50 ([11]; Homo sapiens, MCF-10A): > 50000 nM
- GI50 [12, 25]: > 50000 nM

Compound: O=C1[O][Pt]2([NH][C@@H]3CCCC[C@H]3[NH]2)[O]C1=O [Oxaliplatin, oxaliplatin]
- Resistance factor (RF) [13]: 5.138
- GI50 (HT29 colon cancer cells [14]): 900 ± 200 nM
- GI50 (U87 glioblastoma cells [15]): 1800 ± 200 nM
- GI50 [16]: 500 ± 100 nM
- GI50 [17]: 160 nM
- GI50 (H460 lung cancer cells [18]): 1600 ± 100 nM
- GI50 (A431 skin cancer cells [19]): 4100 ± 500 nM
- GI50 [20]: 2900 ± 400 nM
- GI50 [21]: 900 ± 200 nM
- GI50 (SJ-G2 glioblastoma cells [22]): 3000 ± 1200 nM
- GI50 [23]: 900 ± 200 nM
- GI50 [24]: 822 ± 130 nM
